# Experimental data published in US11976280B2, “SMAC/Diablo inhibitors useful for treating cancer” (THE NATIONAL INSTITUTE FOR BIOTECHNOLOGY IN THE NEGEV LTD., priority 2017, dated 2024).
# d = 2'-deoxy (DNA); r = 2'-OH (RNA)
# Test system: A549 cells-derived tumors
# Experiment: Next-generation sequencing (NGS) of si-NT- and si-hSMAC-A-treated tumors
# Assay type: in vivo, human
# Procedure: Libraries were prepared by the INCPM-RNA-seq unit (Weizmann Institute, Israel). Briefly, polyA fraction (mRNA) was purified from 500 ng of total RNA, isolated as above, followed by fragmentation and generation of double stranded cDNA. End repair, a base addition, adapter ligation and PCR amplification steps were performed according to established methods. Libraries were evaluated by Qubit and TapeStation. Sequencing libraries were constructed with barcodes to allow multiplexing of 20 samples in one lane. Between 22 and 26 million reads single-end 60-bp reads were sequenced per sample on Illumina HiSeq 2500 V4 instrument.
# Bioinformatics analyses were carried out at the Bioinformatics Core Facility at the National Institute for Biotechnology in the Negev, Ben-Gurion University. Raw sequence reads were assessed for quality using FASTQC and further trimmed for removal of remaining adaptors and low quality bases using Trimmomatic. The trimmed reads from each sample were separately aligned to the human and mouse genomes (GRCh38 and GRCm38.75, respectively) using STAR v2.3.0 with default settings. An average of 23.7±0.8 million reads per sample was obtained. Of these, an average of 13, 2.6, 7.8 and 0.3 million reads were mapped to human only, mouse only, both human and mouse, and none of them, respectively. After rejection of multi-mapped reads, a total of 11.5±2.5 human-specific, uniquely mapped reads, and 2.3±1.7 mouse-specific, uniquely mapped reads were subjected for further analysis. The number of aligned reads per gene per sample were counted using HTSeq count with “intersection-nonempty” (to handle reads that overlap with more than one gene) and “no stranded” as parameters. The other parameters were set to their default. Normalization and statistical analysis for differential expression were carried out using DESeq2 v1.6.3. Fold change values were converted to linear scale, with a minus sign indicating down-regulation.
# Differentially expressed genes were defined as those having a p-value<0.05, and linear fold change>1.5 and <−1.5. Functional analysis was performed using the Gene Ontology system, DAVID and Expander software tools.
# NGS was used to investigate changes in patterns of gene expression in si-NT-TTs and si-hSMAC-A-TTs (FIG. 10, and Tables 3-5). […] As si-hSMAC is human-specific, any effect on mouse gene expression must be mediated by the human tumor cells.
# The major functional groups were changes were seen are presented below.
# [1] = vs si-NT-TTs, EXTRACELLULAR MATRIX
# [2] = vs si-NT-TTs, EXTRACELLULAR SPACE
# [3] = vs si-NT-TTs, METABOLISM RELATED ENZYMES
# [4] = vs si-NT-TTs, METABOLISM RELATED ENZYMES, listed as si-SMAC
# [5] = vs si-NT-TTs, REDOX STATE REGULATION
substance,measurement,setting,value
"si-hSMAC-A: siRNA to human SMAC/Diablo; sense 5′AAGCGGUGUUUCUCAGAAUUGtt3′ (SEQ ID NO:20), antisense 5′AACAAUUCUGAGAAACCCGCtt3′ (SEQ ID NO:21) (sense AAGCGGUGUUUCUCAGAAUUGTT; antisense AACAAUUCUGAGAAACCCGCTT; sense: sugars from the 5' end r21 d2, backbone not given here; antisense: sugars from the 5' end r20 d2, backbone not given here)",Fold change FBN1,[1],−1.7 fold
same,Fold change GPC6,[1],−1.8 fold
same,Fold change MMP2,[1],−2.9 fold
same,Fold change NLGN2,[1],−1.8 fold
same,Fold change SMOC1,[1],−1.6 fold
same,Fold change TGFBI,[1],−1.9 fold
same,Fold change VCAN,[1],−1.5 fold
same,Fold change VTN,[1],−1.6 fold
same,Fold change CCL24,[2],1.9 fold
same,Fold change CCL28,[2],1.9 fold
same,Fold change CPM,[2],−1.7 fold
same,Fold change CX3CL1,[2],1.6 fold
same,Fold change IGFBP1,[2],−1.6 fold
same,Fold change IGFBP3,[2],−1.8 fold
same,Fold change LGALS3,[2],1.6 fold
same,Fold change MST1,[2],−1.6 fold
same,Fold change PROC,[2],1.8 fold
same,Fold change SPINK1,[2],1.9 fold
same,Fold change SPINT1,[2],1.7 fold
same,Fold change WISP2,[2],−1.7 fold
same,Fold change ACSLA (acyl-CoA synthetase long-chain family member 4),[3],−1.6 fold
same,Fold change ADARB1,[3],−2.1 fold
same,Fold change ADH4,[3],−2.6 fold
same,Fold change ADI1,[3],1.8 fold
same,Fold change AGPAT2,[3],1.6 fold
same,Fold change B3GNT6,[3],2.1 fold
same,Fold change BLVRA,[3],1.7 fold
same,Fold change CAD,[3],−1.6 fold
same,Fold change CDA,[3],2.0 fold
same,Fold change CMAS,[3],1.5 fold
same,Fold change DGAT2,[3],4.9 fold
same,Fold change DGKD,[3],−1.5 fold
same,Fold change DHRS9,[3],2.8 fold
same,Fold change ELOVL3,[3],7.4 fold
same,Fold change ELOVL4,[3],145.2 fold
same,Fold change ENTPD8,[3],2.7 fold
same,Fold change FAR2,[3],4.1 fold
same,Fold change FASN,[3],−1.5 fold
same,Fold change FAXDC2,[3],2.1 fold
same,Fold change FUT3,[3],2.7 fold
same,Fold change FUT6,[3],1.8 fold
same,Fold change GALNT5,[3],1.6 fold
same,Fold change GALNT6,[3],1.9 fold
same,Fold change GALNT12,[3],1.6 fold
same,Fold change GCNT3,[3],1.7 fold
same,Fold change GPT2,[3],1.5 fold
same,Fold change LIPH,[3],1.9 fold
same,Fold change MGAT4B,[3],1.5 fold
same,Fold change ORMDL2,[3],1.5 fold
same,Fold change PADI1,[3],3.8 fold
same,Fold change PCK1,[3],−6.9 fold
same,Fold change PLCB4,[3],1.7 fold
same,Fold change SDR16C5,[3],3.0 fold
same,Fold change ST3GAL4,[3],1.5 fold
same,Fold change ST6GALNAC1,[3],1.6 fold
same,Fold change STARD10,[3],3.7 fold
same,Fold change ELOVL3,[4],7 fold
same,Fold change ELOVL4,[4],145 fold
same,Fold change ANXA10,"vs si-NT-TTs, Mitochondria",−1.7 fold
same,Fold change BIK,"vs si-NT-TTs, Mitochondria",2.1 fold
same,Fold change C10orf2 (TWINK),"vs si-NT-TTs, Mitochondria",−1.9 fold
same,Fold change CHCHD7,"vs si-NT-TTs, Mitochondria",1.6 fold
same,Fold change CPS1,"vs si-NT-TTs, Mitochondria",−4.8 fold
same,Fold change CYP24A1,"vs si-NT-TTs, Mitochondria",−1.9 fold
same,Fold change ENDOG,"vs si-NT-TTs, Mitochondria",1.8 fold
same,Fold change MT-ND4L,"vs si-NT-TTs, Mitochondria",−1.9 fold
same,Fold change MT-ND5,"vs si-NT-TTs, Mitochondria",−1.6 fold
same,Fold change MYO19,"vs si-NT-TTs, Mitochondria",−1.6 fold
same,Fold change STARD13,"vs si-NT-TTs, Mitochondria",−2.2 fold
same,Fold change GSTP1,[5],−1.6 fold
same,Fold change NOS1,[5],−5.9 fold
same,Fold change PXDN,[5],3.3 fold
same,Fold change SOD2,[5],−1.9 fold
same,Fold change TXN,[5],2.1 fold
same,Fold change ANO1,"vs si-NT-TTs, TRANSPORTERS",3.4 fold
same,Fold change ATP10B,"vs si-NT-TTs, TRANSPORTERS",25.5 fold
same,Fold change CRACR2A,"vs si-NT-TTs, TRANSPORTERS",3.2 fold
same,Fold change GLTP,"vs si-NT-TTs, TRANSPORTERS",1.8 fold
same,Fold change KCNK1,"vs si-NT-TTs, TRANSPORTERS",1.7 fold
same,Fold change KCNN4,"vs si-NT-TTs, TRANSPORTERS",1.8 fold
same,Fold change SCNN1A,"vs si-NT-TTs, TRANSPORTERS",1.9 fold
same,Fold change SLC4A4,"vs si-NT-TTs, TRANSPORTERS",−3.3 fold
same,Fold change SLC6A9,"vs si-NT-TTs, TRANSPORTERS",−1.7 fold
same,Fold change SLC24A1,"vs si-NT-TTs, TRANSPORTERS",−1.6 fold
same,Fold change SLC25A37,"vs si-NT-TTs, TRANSPORTERS",−1.5 fold
same,Fold change SLC44A4,"vs si-NT-TTs, TRANSPORTERS",2.2 fold
same,Fold change SLC45A3,"vs si-NT-TTs, TRANSPORTERS",1.8 fold
same,Fold change SLCO2B1,"vs si-NT-TTs, TRANSPORTERS",−2.8 fold
same,Fold change TMC4,"vs si-NT-TTs, TRANSPORTERS",6.3 fold
same,Fold change TMC8,"vs si-NT-TTs, TRANSPORTERS",2.4 fold
same,Fold change ATP10B,"vs si-NT-TTs, TRANSPORTERS, listed as si-SMAC",25 fold
same,number of genes with significant changes,"≥1.5-fold change, adjusted P value<0.05, human and murine",848
